Source: patent US8471005B2 (Cephalon, Inc., priority 2008, dated 2013)
Where two headings read alike, the source gives them in different places.

Legend:
ALK = target: T1, ALK (Homo sapiens, UniProt Q9UM73); assay: ALK Kinase Assay (ELISA/TRF, PLC-γ substrate); type: biochemical; conditions: read-out: ALK Potency
T1 construct: host or cells: baculovirus expression system
Method in brief: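 PLC-γ substrate coated at 10 μg/mL in TBS; reaction started with 30 ng/ml ALK, run 15 min at 37° C. Phosphoproduct detected by TRF with Eu-N1-labeled PT66 anti-phosphotyrosine antibody. IC50 from sigmoidal variable-slope fit of percent inhibition versus log concentration.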

JAK2 = target: T2, JAK2 (Homo sapiens, UniProt O60674); assay: Recombinant Human JAK2 Kinase Assay (TRF); type: biochemical; conditions: read-out: JAK2 Potency
T2 construct: host or cells: baculovirus expression system
T2 sequence (O60674 whole entry): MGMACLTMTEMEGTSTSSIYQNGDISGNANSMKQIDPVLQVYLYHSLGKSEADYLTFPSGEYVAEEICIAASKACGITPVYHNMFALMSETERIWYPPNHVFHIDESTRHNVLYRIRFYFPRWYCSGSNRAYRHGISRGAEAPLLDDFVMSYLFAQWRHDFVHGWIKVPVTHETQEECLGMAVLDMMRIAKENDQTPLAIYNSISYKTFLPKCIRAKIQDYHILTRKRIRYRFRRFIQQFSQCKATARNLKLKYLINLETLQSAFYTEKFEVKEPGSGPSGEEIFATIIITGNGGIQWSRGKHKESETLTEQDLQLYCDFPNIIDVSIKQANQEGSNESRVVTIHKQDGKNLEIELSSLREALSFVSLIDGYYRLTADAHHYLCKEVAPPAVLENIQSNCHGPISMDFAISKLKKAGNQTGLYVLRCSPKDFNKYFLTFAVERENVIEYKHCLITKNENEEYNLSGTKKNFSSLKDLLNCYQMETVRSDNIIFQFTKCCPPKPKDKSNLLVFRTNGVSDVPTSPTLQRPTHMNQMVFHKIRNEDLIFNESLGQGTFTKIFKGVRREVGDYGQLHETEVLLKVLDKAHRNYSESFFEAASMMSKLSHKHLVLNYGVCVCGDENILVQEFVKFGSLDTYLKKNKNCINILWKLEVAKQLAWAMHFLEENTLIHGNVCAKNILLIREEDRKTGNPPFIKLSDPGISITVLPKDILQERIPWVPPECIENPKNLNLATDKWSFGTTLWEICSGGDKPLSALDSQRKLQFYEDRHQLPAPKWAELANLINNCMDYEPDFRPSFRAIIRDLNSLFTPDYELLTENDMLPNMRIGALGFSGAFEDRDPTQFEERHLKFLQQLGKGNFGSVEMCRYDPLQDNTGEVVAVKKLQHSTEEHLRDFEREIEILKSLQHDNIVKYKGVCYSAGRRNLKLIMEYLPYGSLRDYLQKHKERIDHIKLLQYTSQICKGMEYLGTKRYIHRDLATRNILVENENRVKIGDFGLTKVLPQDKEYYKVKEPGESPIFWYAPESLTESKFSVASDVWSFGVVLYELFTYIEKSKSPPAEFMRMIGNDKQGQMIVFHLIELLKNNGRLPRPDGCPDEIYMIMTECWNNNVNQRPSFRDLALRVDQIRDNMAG
Method in brief: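 Europium-labelled PY100 antibody reported tyrosine phosphorylation of a Neutravidin-captured biotinyl 15-mer peptide by JAK2 (baculovirus-expressed, 15 ng/ml). Conditions: 20 mM HEPES pH 7.2, 0.2 μM ATP, 1 mM MnCl2, 0.1% BSA, DMSO 2.5% final, 20 min at room temperature.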

[1] = ALK kinase inhibition, 1 μM ATP
[2] = JAK2 kinase inhibition, 0.2 μM ATP

T1 sequence (Q9UM73 19-1620): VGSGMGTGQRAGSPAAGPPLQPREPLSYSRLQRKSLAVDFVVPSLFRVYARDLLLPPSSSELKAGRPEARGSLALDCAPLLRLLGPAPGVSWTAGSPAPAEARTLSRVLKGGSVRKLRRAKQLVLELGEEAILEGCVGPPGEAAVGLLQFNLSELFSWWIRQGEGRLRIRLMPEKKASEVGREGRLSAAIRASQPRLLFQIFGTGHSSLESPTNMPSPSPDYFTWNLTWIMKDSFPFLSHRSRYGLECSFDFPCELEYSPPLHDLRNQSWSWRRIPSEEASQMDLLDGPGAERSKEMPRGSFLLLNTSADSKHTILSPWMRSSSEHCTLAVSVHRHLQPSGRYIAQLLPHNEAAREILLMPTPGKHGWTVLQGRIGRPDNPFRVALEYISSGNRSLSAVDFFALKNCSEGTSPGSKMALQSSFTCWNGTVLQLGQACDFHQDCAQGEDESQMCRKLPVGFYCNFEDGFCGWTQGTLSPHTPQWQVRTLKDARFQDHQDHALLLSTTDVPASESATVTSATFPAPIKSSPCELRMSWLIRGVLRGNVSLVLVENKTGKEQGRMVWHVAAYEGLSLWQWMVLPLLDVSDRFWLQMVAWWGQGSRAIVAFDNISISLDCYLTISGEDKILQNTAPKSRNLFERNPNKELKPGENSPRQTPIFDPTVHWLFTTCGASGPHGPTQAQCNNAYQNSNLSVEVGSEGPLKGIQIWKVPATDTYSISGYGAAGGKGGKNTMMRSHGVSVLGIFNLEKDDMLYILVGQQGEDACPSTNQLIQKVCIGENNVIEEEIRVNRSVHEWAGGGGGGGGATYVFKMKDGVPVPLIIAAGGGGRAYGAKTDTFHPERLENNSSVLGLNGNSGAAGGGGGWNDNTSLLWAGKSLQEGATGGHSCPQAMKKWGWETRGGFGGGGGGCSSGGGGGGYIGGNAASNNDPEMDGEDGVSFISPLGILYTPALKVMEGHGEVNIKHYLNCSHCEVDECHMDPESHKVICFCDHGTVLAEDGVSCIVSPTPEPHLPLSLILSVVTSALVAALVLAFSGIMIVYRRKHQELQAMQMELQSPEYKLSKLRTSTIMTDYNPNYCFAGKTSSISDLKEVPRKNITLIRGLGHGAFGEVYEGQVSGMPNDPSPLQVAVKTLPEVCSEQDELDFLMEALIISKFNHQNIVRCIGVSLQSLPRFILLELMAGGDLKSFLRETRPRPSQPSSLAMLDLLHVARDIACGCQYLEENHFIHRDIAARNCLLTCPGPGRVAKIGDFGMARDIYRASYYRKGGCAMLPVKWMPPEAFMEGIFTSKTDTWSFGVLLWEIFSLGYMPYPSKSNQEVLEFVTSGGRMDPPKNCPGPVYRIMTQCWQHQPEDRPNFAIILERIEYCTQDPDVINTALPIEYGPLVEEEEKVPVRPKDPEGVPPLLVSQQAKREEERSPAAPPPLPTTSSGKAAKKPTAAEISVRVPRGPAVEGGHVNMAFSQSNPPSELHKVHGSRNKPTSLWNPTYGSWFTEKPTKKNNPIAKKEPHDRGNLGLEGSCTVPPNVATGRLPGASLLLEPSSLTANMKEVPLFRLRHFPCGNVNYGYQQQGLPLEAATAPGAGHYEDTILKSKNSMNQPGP

SMILES | IC50 (ALK; ALK Kinase Inhibition) [µM] | IC50 (JAK2; JAK2 Kinase Inhibition) [µM] | IC50 (ALK; [1]) [µM] | IC50 (JAK2; [2]) [µM]
COc1ccc(Cl)cc1-c1ccc2cnc(Nc3ccc4c(c3)CC(=O)N4C)nn12 [Example 360, 5-[7-(5-Chloro-2-methoxy-phenyl)-pyrrolo[2,1-f][1,2,4]triazin-2-ylamino]-1-methyl-1,3-dihydro-indol-2-one] | 0.1 to 1 | < 0.1 |  | 
c1cncc(-c2ccc3cnc(Nc4ccc(N5CCCC(N6CCOCC6)C5)cc4)nn23)c1 (centres unmarked) [Example 347, [4-(3-Morpholin-4-yl-piperidin-1-yl)-phenyl]-(7-pyridin-3-yl-pyrrolo[2,1-f][1,2,4]triazin-2-yl)-amine] | 0.1 to 1 | < 0.1 |  | 
COc1ccc(-c2ccc3cnc(Nc4ccc(N5CCC[C@@H](C(=O)N6CCN(C)CC6)C5)cc4OC)nn23)cn1 [Example 464, ((R)-1-{3-Methoxy-4-[7-(6-methoxy-pyridin-3-yl)-pyrrolo[2,1-f][1,2,4]triazin-2-ylamino]-phenyl}-piperidin-3-yl)-(4-methyl-piperazin-1-yl)-methanone] | 0.1 to 1 | < 0.1 |  | 
CN1CCN(c2ccc(Nc3ncc4ccc(-c5ccccc5C(N)=O)n4n3)cc2)CC1 [Example 409, 2-{2-[4-(4-Methyl-piperazin-1-yl)-phenylamino]-pyrrolo[2,1-f][1,2,4]triazin-7-yl}-benzamide] | 0.1 to 1 | < 0.1 |  | 
COc1cc(N2CCC(NCCO)CC2)ccc1Nc1ncc2ccc(-c3ccccc3OC)n2n1 [Example 797, 2-(1-{3-Methoxy-4-[7-(2-methoxy-phenyl)-pyrrolo[2,1-f][1,2,4]triazin-2-ylamino]-phenyl}-piperidin-4-ylamino)-ethanol] |  |  | < 0.1 | < 0.1
COc1ccc(CN2CCN(C)CC2)cc1Nc1ncc2ccc(-c3ccccc3OC)n2n1 [Example 495, [2-Methoxy-5-(4-methyl-piperazin-1-ylmethyl)-phenyl]-[7-(2-methoxy-phenyl)-pyrrolo[2,1-f][1,2,4]triazin-2-yl]-amine] |  |  | 1 to 10 | < 0.1
COc1ccc(-c2ccc3cnc(Nc4ccc(-c5csnn5)cc4)nn23)cn1 [Example 909, [7-(6-Methoxy-pyridin-3-yl)-pyrrolo[2,1-f][1,2,4]triazin-2-yl]-(4-[1,2,3]thiadiazol-4-yl-phenyl)-amine] |  |  | 1 to 10 | < 0.1
CN1CCN(c2cccc(Nc3ncc4ccc(-c5cccc(NCCS(C)(=O)=O)c5)n4n3)c2)CC1 [Example 894, {7-[3-(2-Methanesulfonyl-ethylamino)-phenyl]-pyrrolo[2,1-f][1,2,4]triazin-2-yl}-[3-(4-methyl-piperazin-1-yl)-phenyl]-amine] |  |  | 0.1 to 1 | < 0.1
CC(C)(C)NS(=O)(=O)c1cccc(-c2ccc3cnc(Nc4ccc5c(c4)NC(=O)C5(C)C)nn23)c1 [Example 655, N-tert-Butyl-3-[2-(3,3-dimethyl-2-oxo-2,3-dihydro-1H-indol-6-ylamino)-pyrrolo[2,1-f][1,2,4]triazin-7-yl]-benzenesulfonamide] |  |  | 0.1 to 1 | < 0.1
COc1cc(C(=O)N2CCN(C)CC2)ccc1Nc1ncc2ccc(-c3ccccc3OC)n2n1 [Example 489, {3-Methoxy-4-[7-(2-methoxy-phenyl)-pyrrolo[2,1-f][1,2,4]triazin-2-ylamino]-phenyl}-(4-methyl-piperazin-1-yl)-methanone] |  |  | 0.1 to 1 | 0.1 to 1
CC(C)(C)NS(=O)(=O)c1cccc(-c2ccc3cnc(Nc4ccc5c(c4)CCN(CC(N)=O)C5)nn23)c1 [Example 920, 2-{6-[7-(3-tert-Butylsulfamoyl-phenyl)-pyrrolo[2,1-f][1,2,4]triazin-2-ylamino]-3,4-dihydro-1H-isoquinolin-2-yl}-acetamide] |  |  | 0.1 to 1 | < 0.1
CS(=O)(=O)Nc1ccccc1-c1ccc2cnc(Nc3ccc(N4CCOCC4)cc3)nn12 [Example 428, N-{2-[2-(4-Morpholin-4-yl-phenylamino)-pyrrolo[2,1-f][1,2,4]triazin-7-yl]-phenyl}-methanesulfonamide] | 1 to 10 | < 0.1 |  | 
N#Cc1ccc2cnc(Nc3ccc(N4CCOCC4)cc3)nn12 [Example 51, 2-(4-Morpholin-4-yl-phenylamino)-pyrrolo[2,1-f][1,2,4]triazine-7-carbonitrile] | > 10 | < 0.1 |  | 
COc1cc(N2CCC(CN3CCN(C)CC3)CC2)ccc1Nc1ncc2ccc(-c3ccccc3N(C)S(C)(=O)=O)n2n1 [Example 467, N-[2-(2-{2-Methoxy-4-[4-(4-methyl-piperazin-1-ylmethyl)-piperidin-1-yl]-phenylamino}-pyrrolo[2,1-f][1,2,4]triazin-7-yl)-phenyl]-N-methyl-methanesulfonamide] | < 0.1 | 0.1 to 1 |  | 
CCOc1ccccc1-c1ccc2cnc(Nc3ccc(N4CCN(C)CC4)cc3)nn12 [Example 109, [7-(2-Ethoxy-phenyl)-pyrrolo[2,1-f][1,2,4]triazin-2-yl]-[4-(4-methyl-piperazin-1-yl)-phenyl]-amine] | < 0.1 | < 0.1 |  | 
COc1cc(N2CCC(N3CCOCC3)CC2)ccc1Nc1ncc2ccc(-c3ccc(F)cc3OC)n2n1 [Example 510, [7-(4-Fluoro-2-methoxy-phenyl)-pyrrolo[2,1-f][1,2,4]triazin-2-yl]-[2-methoxy-4-(4-morpholin-4-yl-piperidin-1-yl)-phenyl]-amine] |  |  | < 0.1 | < 0.1
COc1cc(C2CCN(C[C@H](Oc3ncc4ccc(-c5ccccc5N(C)S(C)(=O)=O)n4n3)C(F)(F)F)CC2)ccc1N [Example 785, N-[2-(2-{(S)-1-[4-(4-Amino-3-methoxy-phenyl)-piperidin-1-ylmethyl]-2,2,2-trifluoro-ethoxy}-pyrrolo[2,1-f][1,2,4]triazin-7-yl)-phenyl]-N-methyl-methanesulfonamide] |  |  | > 10 | > 10

Now from value to molecule:

IC50 (ALK; ALK Kinase Inhibition) [µM] | IC50 (JAK2; JAK2 Kinase Inhibition) [µM] | IC50 (ALK; [1]) [µM] | IC50 (JAK2; [2]) [µM] | SMILES
0.1 to 1 | < 0.1 |  |  | CC(C)(C)NS(=O)(=O)c1cccc(-c2ccc3cnc(Nc4ccc(N5CCOCC5)c(F)c4)nn23)c1 [Example 1395, N-tert-Butyl-3-[2-(3-fluoro-4-morpholin-4-yl-phenylamino)-pyrrolo[2,1-f][1,2,4]triazin-7-yl]-benzenesulfonamide]
 |  | < 0.1 | 0.1 to 1 | COc1cc(CN2C[C@@H](O)[C@H](O)C2)ccc1Nc1ncc2ccc(-c3ccccc3OC)n2n1 [Example 1237, (3R,4R)-1-{3-Methoxy-4-[7-(2-methoxy-phenyl)-pyrrolo[2,1-f][1,2,4]triazin-2-ylamino]-benzyl}-pyrrolidine-3,4-diol]
 |  | 1 to 10 | < 0.1 | COc1ccc(-c2ccc3cnc(Nc4ccc5c(c4)CN(CC(N)=O)C5)nn23)cn1 [Example 926, 2-{5-[7-(6-Methoxy-pyridin-3-yl)-pyrrolo[2,1-f][1,2,4]triazin-2-ylamino]-1,3-dihydro-isoindol-2-yl}-acetamide]
0.1 to 1 | < 0.1 |  |  | COc1ccccc1-c1ccc2cnc(Nc3ccc4nc(CN5CCN(CCO)CC5)[nH]c4c3)nn12 [Example 1522, 2-(4-{6-[7-(2-Methoxy-phenyl)-pyrrolo[2,1-f][1,2,4]triazin-2-ylamino]-1H-benzimidazol-2-ylmethyl}-piperazin-1-yl)-ethanol]
 |  | 1 to 10 | < 0.1 | CC(C)(C)NS(=O)(=O)c1cccc(-c2ccc3cnc(Nc4ccc5[nH]ncc5c4)nn23)c1 [Example 1315, N-tert-Butyl-3-[2-(1H-indazol-5-ylamino)-pyrrolo[2,1-f][1,2,4]triazin-7-yl]-benzenesulfonamide]
 |  | 0.1 to 1 | < 0.1 | CN1CCN(c2ccc(Nc3ncc4ccc(-c5cccc(CNCCS(C)(=O)=O)c5)n4n3)cc2)CC1 [Example 1162, (7-{3-[(2-Methanesulfonyl-ethylamino)-methyl]-phenyl}-pyrrolo[2,1-f][1,2,4]triazin-2-yl)-[4-(4-methyl-piperazin-1-yl)-phenyl]-amine]
 |  | 0.1 to 1 | < 0.1 | COc1ccc(-c2ccc3cnc(Nc4ccc(CN5CCN(C)CC5)cc4)nn23)cn1 [Example 1214, [7-(6-Methoxy-pyridin-3-yl)-pyrrolo[2,1-f][1,2,4]triazin-2-yl]-[4-(4-methyl-piperazin-1-ylmethyl)-phenyl]-amine]
 |  | 0.1 to 1 | < 0.1 | CN1CCN(c2cccc(Nc3ncc4ccc(-c5cnn(CC(N)=O)c5)n4n3)c2)CC1 [Example 978, 2-(4-{2-[3-(4-Methyl-piperazin-1-yl)-phenylamino]-pyrrolo[2,1-f][1,2,4]triazin-7-yl}-pyrazol-1-yl)-acetamide]
0.1 to 1 | < 0.1 |  |  | FC1(F)Oc2cccc(-c3ccc4cnc(Nc5ccc6[nH]c(CN7CCOCC7)nc6c5)nn34)c2O1 [Example 1536, [7-(2,2-Difluoro-benzo[1,3]dioxol-4-yl)-pyrrolo[2,1-f][1,2,4]triazin-2-yl]-(2-morpholin-4-ylmethyl-1H-benzoimidazol-5-yl)-amine]
 |  | 0.1 to 1 | < 0.1 | CN(c1ccccc1-c1ccc2cnc(Nc3ccn(CCN4CCOCC4)n3)nn12)S(C)(=O)=O [Example 1186, N-Methyl-N-(2-{2-[1-(2-morpholin-4-yl-ethyl)-1H-pyrazol-3-ylamino]-pyrrolo[2,1-f][1,2,4]triazin-7-yl}-phenyl)-methanesulfonamide]
 |  | 1 to 10 | < 0.1 | CN1CCN(C)C(c2cccc(Nc3ncc4ccc(-c5cccc(S(C)(=O)=O)c5)n4n3)c2)C1=O (centres unmarked) [Example 1080, 3-{3-[7-(3-Methanesulfonyl-phenyl)-pyrrolo[2,1-f][1,2,4]triazin-2-ylamino]-phenyl}-1,4-dimethyl-piperazin-2-one]
